PubChem BioAssay AID248 (DTP/NCI, 2004)
“And” between values parts separate entries of the source, which are not always exact repeats. Equal entries are not always repeated. Inconclusive results and toxic doses are left out. Rule as the data show it: active = T/C of 150% or more; inactive = T/C below 125%.

System: L1210 leukemia ip in BDF1 mice, survival T/C
Assay: NCI In Vivo Anticancer Drug Screen. Data for tumor model L1210 Leukemia (intraperitoneal) in B6D2F1 (BDF1) mice
Details: endpoint: mean survival time, higher = longer survival
Method in brief: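 Transplantable tumor model; survival measured in treated vs vehicle control mice. Value = treated/control.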

[1] = dose: 50.0 mg/kg/injection, schedule: Q01DX009 (ip), vehicle: saline
[2] = dose: 100.0 mg/kg/injection, schedule: Q01DX001 (ip), vehicle: saline
[3] = dose: 100.0 mg/kg/injection, schedule: Q01DX009 (ip), vehicle: saline
[4] = dose: 100.0 mg/kg/injection, schedule: Q04DX002 (ip), vehicle: saline
[5] = dose: 100.0 mg/kg/injection, schedule: Q04DX003 (ip), vehicle: saline
[6] = dose: 200.0 mg/kg/injection, schedule: Q01DX001 (ip), vehicle: saline
[7] = dose: 200.0 mg/kg/injection, schedule: Q04DX002 (ip), vehicle: saline
[8] = dose: 200.0 mg/kg/injection, schedule: Q04DX003 (ip), vehicle: saline
[9] = dose: 400.0 mg/kg/injection, schedule: Q01DX001 (ip), vehicle: saline
[10] = dose: 400.0 mg/kg/injection, schedule: Q04DX002 (ip), vehicle: saline
[11] = dose: 50.0 mg/kg/injection, schedule: Q01DX001 (ip), vehicle: saline
[12] = dose: 100.0 mg/kg/injection, schedule: Q01DX009 (ip), vehicle: saline with Tween-80
[13] = dose: 200.0 mg/kg/injection, schedule: Q01DX009 (ip), vehicle: saline with Tween-80
[14] = dose: 400.0 mg/kg/injection, schedule: Q01DX009 (ip), vehicle: saline with Tween-80
[15] = dose: 100.0 mg/kg/injection, schedule: Q04DX003 (ip), vehicle: saline with Tween-80
[16] = dose: 200.0 mg/kg/injection, schedule: Q04DX003 (ip), vehicle: saline with Tween-80

Measured: T/C

NOCCCCON
inactive: dose: 25.0 mg/kg/injection, schedule: Q01DX009 (ip), vehicle: saline 98 % of control and 103 % of control | dose: 25.0 mg/kg/injection, schedule: Q04DX002 (ip), vehicle: saline 93 % of control and 97 % of control | [1] 95 % of control and 97 % of control | dose: 50.0 mg/kg/injection, schedule: Q04DX002 (ip), vehicle: saline 96 % of control and 101 % of control | dose: 50.0 mg/kg/injection, schedule: Q04DX003 (ip), vehicle: saline 98 % of control | [2] 101 % of control | [3] 100 % of control [middle of 4 runs] | [4] 93 % of control and 94 % of control | [5] 95 % of control | [6] 102 % of control | dose: 200.0 mg/kg/injection, schedule: Q01DX009 (ip), vehicle: saline 95 % of control and 102 % of control | [7] 96 % of control and 105 % of control | [8] 93 % of control | [9] 104 % of control | [10] 98 % of control and 110 % of control

CC(=O)OCC(=O)c1cc(OC(C)=O)c(OC(C)=O)c(OC(C)=O)c1
inactive: [2] 91 % of control | [9] 94 % of control

Cc1ccc([P+](Cc2ccc(Cl)cc2Cl)(c2ccc(C)cc2)c2ccc(C)cc2)cc1
inactive: dose: 6.25 mg/kg/injection, schedule: Q04DX003 (ip), vehicle: Klucel (hydroxypropylcellulose) (HPC) 103 % of control | dose: 12.5 mg/kg/injection, schedule: Q04DX003 (ip), vehicle: Klucel (hydroxypropylcellulose) (HPC) 92 % of control

O=C(O)CCC1CCC(=O)NC1=O (configuration not stated)
inactive: dose: 25.0 mg/kg/injection, schedule: Q04DX002 (ip), vehicle: Klucel (hydroxypropylcellulose) (HPC) 95 % of control | dose: 50.0 mg/kg/injection, schedule: Q04DX002 (ip), vehicle: Klucel (hydroxypropylcellulose) (HPC) 101 % of control | dose: 100.0 mg/kg/injection, schedule: Q04DX002 (ip), vehicle: Klucel (hydroxypropylcellulose) (HPC) 89 % of control | dose: 200.0 mg/kg/injection, schedule: Q04DX002 (ip), vehicle: Klucel (hydroxypropylcellulose) (HPC) 103 % of control | dose: 400.0 mg/kg/injection, schedule: Q04DX002 (ip), vehicle: Klucel (hydroxypropylcellulose) (HPC) 88 % of control

CC(=S)c1ccccc1
inactive: dose: 50.0 mg/kg/injection, schedule: Q04DX003 (ip), vehicle: Klucel (hydroxypropylcellulose) (HPC) 102 % of control | dose: 100.0 mg/kg/injection, schedule: Q04DX003 (ip), vehicle: Klucel (hydroxypropylcellulose) (HPC) 107 % of control | dose: 200.0 mg/kg/injection, schedule: Q04DX003 (ip), vehicle: Klucel (hydroxypropylcellulose) (HPC) 92 % of control | dose: 400.0 mg/kg/injection, schedule: Q04DX003 (ip), vehicle: Klucel (hydroxypropylcellulose) (HPC) 97 % of control

CCNS(=O)(=O)c1ncnc2nc[nH]c12
inactive: dose: 44.0 mg/kg/injection, schedule: Q01DX Z (ip), vehicle: carboxymethylcellulose (CMC) 117 % of control | dose: 44.0 mg/kg/injection, schedule: Q01DX Z (ip), vehicle: methylcellulose (MC) 98 % of control | dose: 66.0 mg/kg/injection, schedule: Q01DX Z (ip), vehicle: carboxymethylcellulose (CMC) 123 % of control | dose: 66.0 mg/kg/injection, schedule: Q01DX Z (ip), vehicle: methylcellulose (MC) 102 % of control | dose: 100.0 mg/kg/injection, schedule: Q01DX Z (ip), vehicle: methylcellulose (MC) 106 % of control | dose: 150.0 mg/kg/injection, schedule: Q01DX Z (ip), vehicle: methylcellulose (MC) 102 % of control

CC(C)(C)c1cc([N+](C)(C)C)cc(C(C)(C)C)n1
inactive: dose: 6.25 mg/kg/injection, schedule: Q01DX001 (ip), vehicle: saline 97 % of control | dose: 12.5 mg/kg/injection, schedule: Q01DX001 (ip), vehicle: saline 112 % of control | dose: 25.0 mg/kg/injection, schedule: Q01DX001 (ip), vehicle: saline 105 % of control

Cc1cc(CCNC=O)c(C)c2c1sc1ccccc12
inactive: [11] 97 % of control | [2] 97 % of control | [6] 92 % of control | [9] 94 % of control

O=C(Nc1ccccc1C(F)(F)F)Oc1ccc(Cl)cc1Cc1ccccc1
inactive: [12] 93 % of control | dose: 100.0 mg/kg/injection, schedule: Q04DX002 (ip), vehicle: saline with Tween-80 117 % of control | [13] 101 % of control | dose: 200.0 mg/kg/injection, schedule: Q04DX002 (ip), vehicle: saline with Tween-80 98 % of control | [14] 101 % of control | dose: 400.0 mg/kg/injection, schedule: Q04DX002 (ip), vehicle: saline with Tween-80 98 % of control

O=C(NC(CBr)CCCBr)c1ccc([N+](=O)[O-])cc1 (configuration not stated)
inactive: [15] 105 % of control | [16] 94 % of control | dose: 400.0 mg/kg/injection, schedule: Q04DX003 (ip), vehicle: saline with Tween-80 94 % of control

O=c1[nH]c2cc3ccccc3cc2c2ccccc12
inactive: [2] 109 % of control | [6] 95 % of control | [9] 100 % of control

CC(=O)OCC(C)(C)c1ccccc1
inactive: [4] 105 % of control | [7] 97 % of control | [10] 105 % of control

Cn1ncc2[nH]c(=O)n(O)c(=O)c21
inactive: [11] 93 % of control | [2] 96 % of control | [6] 100 % of control | [9] 100 % of control

CC(C)(C)CC(CC(C)(C)C)C(=O)O
inactive: dose: 106.0 mg/kg/injection, schedule: Q01DX Z (ip), vehicle: other 94 % of control | dose: 160.0 mg/kg/injection, schedule: Q01DX Z (ip), vehicle: other 102 % of control | dose: 240.0 mg/kg/injection, schedule: Q01DX Z (ip), vehicle: other 96 % of control and 103 % of control | dose: 360.0 mg/kg/injection, schedule: Q01DX Z (ip), vehicle: other 101 % of control and 89 % of control | dose: 540.0 mg/kg/injection, schedule: Q01DX Z (ip), vehicle: other 86 % of control

CC(C)(C)c1ccc(SC/C=C/COc2ccccc2)cc1
inactive: dose: 75.0 mg/kg/injection, schedule: Q01DX009 (ip), vehicle: Klucel (hydroxypropylcellulose) (HPC) 101 % of control | dose: 150.0 mg/kg/injection, schedule: Q01DX009 (ip), vehicle: Klucel (hydroxypropylcellulose) (HPC) 90 % of control | dose: 300.0 mg/kg/injection, schedule: Q01DX009 (ip), vehicle: Klucel (hydroxypropylcellulose) (HPC) 91 % of control

O=c1[nH]ccc2c(O)cccc12
inactive: dose: 50.0 mg/kg/injection, schedule: Q01DX009 (ip), vehicle: saline with Tween-80 95 % of control | dose: 50.0 mg/kg/injection, schedule: Q04DX003 (ip), vehicle: saline with Tween-80 101 % of control | [12] 97 % of control | [15] 101 % of control | [13] 90 % of control | [16] 94 % of control

Cc1ccnc2ccc3ccccc3c12
inactive: dose: 100.0 mg/kg/injection, schedule: Q01DX001 (ip), vehicle: other 101 % of control | dose: 200.0 mg/kg/injection, schedule: Q01DX001 (ip), vehicle: other 107 % of control | dose: 400.0 mg/kg/injection, schedule: Q01DX001 (ip), vehicle: other 113 % of control

CCOC(=O)c1cc(N(CCOS(C)(=O)=O)CCOS(C)(=O)=O)ccc1[N+](=O)[O-]
inactive: [11] 103 % of control | [2] 97 % of control | [6] 97 % of control | [9] 97 % of control

O=C1/C(=C/c2ccc([N+](=O)[O-])cc2)SC(=S)N1C1OC(CO)C(O)C(O)C1O (configuration not stated)
inactive: dose: 25.0 mg/kg/injection, schedule: Q01DX005 (ip), vehicle: water 95 % of control | dose: 50.0 mg/kg/injection, schedule: Q01DX005 (ip), vehicle: water 95 % of control | dose: 100.0 mg/kg/injection, schedule: Q01DX005 (ip), vehicle: water 93 % of control

NC(=O)CC(NC(=O)CCl)C(=O)O (configuration not stated)
inactive: [12] 104 % of control | [13] 87 % of control | [14] 86 % of control

Cc1ccc(S(=O)(=O)C(CC(=O)O)c2ccccc2)cc1 (configuration not stated)
inactive: dose: 100.0 mg/kg/injection, schedule: Q01DX001 (ip), vehicle: carboxymethylcellulose (CMC) 88 % of control | dose: 200.0 mg/kg/injection, schedule: Q01DX001 (ip), vehicle: carboxymethylcellulose (CMC) 93 % of control | dose: 400.0 mg/kg/injection, schedule: Q01DX001 (ip), vehicle: carboxymethylcellulose (CMC) 98 % of control

C/C=C\C=N\N(C)C
inactive: [1] 110 % of control | [3] 106 % of control | [5] 102 % of control | [8] 97 % of control

CC1(CCC(=O)O)CCCCC1=O (configuration not stated)
inactive: [5] 96 % of control | [8] 96 % of control | dose: 400.0 mg/kg/injection, schedule: Q04DX003 (ip), vehicle: saline 112 % of control
